Experimental data from ChEMBL document CHEMBL1201862, “PubChem BioAssay data set” (2004).
Where “and” joins values, the source holds several entries; their conditions need not be identical. Identical values can stand only once.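 Five concentrations, 48 hours, 96-well plates. At the GI50, growth is halved.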 Calls of active or inactive are those of the source. Rule as the data show it: active = GI50 up to about 1.1 µM and inactive = higher.

Columns and labels:
Assay in all cases: growth of human tumour cells (NCI), 48 h
SF-268 = system: SF-268
MCF7 = system: MCF7
OVCAR-4 = system: OVCAR-4
786-0 = system: 786-0
OVCAR-3 = system: OVCAR-3
Hs-578T = system: Hs-578T
UO-31 = system: UO-31
NCI/ADR-RES = system: NCI/ADR-RES
SK-MEL-2 = system: SK-MEL-2
LOX IMVI = system: LOX IMVI
Malme-3M = system: Malme-3M
HOP-92 = system: HOP-92
PC-3 = system: PC-3
NCI-H522 = system: NCI-H522
HT-29 = system: HT-29
SF-295 = system: SF-295
HL-60 = system: HL-60
HCT-116 = system: HCT-116
MDA-N = system: MDA-N
SNB-75 = system: SNB-75
NCI-H23 = system: NCI-H23
IGROV-1 = system: IGROV-1
UACC-257 = system: UACC-257
SW-620 = system: SW-620
MOLT-4 = system: MOLT-4
HCC 2998 = system: HCC 2998
OVCAR-8 = system: OVCAR-8
M14 = system: M14
A498 = system: A498
K562 = system: K562
SK-MEL-5 = system: SK-MEL-5
COLO 205 = system: COLO 205
SR = system: SR
CCRF-CEM = system: CCRF-CEM
SK-MEL-28 = system: SK-MEL-28
ACHN = system: ACHN
KM12 = system: KM12
HCT-15 = system: HCT-15
SN12C = system: SN12C
MDA-MB-231 = system: MDA-MB-231
U-251 = system: U-251
BT-549 = system: BT-549
SNB-19 = system: SNB-19
OVCAR-5 = system: OVCAR-5
RPMI-8226 = system: RPMI-8226
HOP-62 = system: HOP-62
NCI-H460 = system: NCI-H460
TK-10 = system: TK-10
A549 = system: A549
SK-OV-3 = system: SK-OV-3
CAKI-1 = system: CAKI-1
EKVX = system: EKVX
NCI-H226 = system: NCI-H226
MDA-MB-435 = system: MDA-MB-435
UACC-62 = system: UACC-62
RXF 393 = system: RXF 393
SF-539 = system: SF-539

O=C(O)CCNC(=O)c1cc(N(CCBr)CCBr)c([N+](=O)[O-])cc1[N+](=O)[O-]
GI50 (SF-268): > 100 µM (inactive)
GI50 (MCF7): > 100 µM (inactive)
GI50 (OVCAR-4): > 100 µM (inactive)
GI50 (786-0): > 100 µM (inactive)
GI50 (OVCAR-3): > 100 µM (inactive)
GI50 (Hs-578T): > 100 µM (inactive)
GI50 (UO-31): > 100 µM (inactive)
GI50 (NCI/ADR-RES): > 100 µM (inactive)
GI50 (SK-MEL-2): > 100 µM (inactive)
GI50 (LOX IMVI): > 100 µM (inactive)
GI50 (Malme-3M): > 100 µM (inactive)
GI50 (HOP-92): > 100 µM (inactive)
GI50 (PC-3): > 100 µM (inactive)
GI50 (NCI-H522): > 100 µM (inactive)
GI50 (HT-29): > 100 µM (inactive)
GI50 (SF-295): > 100 µM (inactive)
GI50 (HL-60): > 100 µM (inactive)
GI50 (HCT-116): > 100 µM (inactive)
GI50 (MDA-N): > 100 µM (inactive)
GI50 (SNB-75): > 100 µM (inactive)
GI50 (NCI-H23): > 100 µM (inactive)
GI50 (IGROV-1): > 100 µM (inactive)
GI50 (UACC-257): > 100 µM (inactive)
GI50 (SW-620): > 100 µM (inactive)
GI50 (MOLT-4): > 100 µM (inactive)
GI50 (HCC 2998): > 100 µM (inactive)
GI50 (OVCAR-8): > 100 µM (inactive)
GI50 (M14): > 100 µM (inactive)
GI50 (A498): > 100 µM (inactive)
GI50 (K562): > 100 µM (inactive)
GI50 (SK-MEL-5): > 100 µM (inactive)
GI50 (COLO 205): > 100 µM (inactive)
GI50 (SR): > 100 µM (inactive)
GI50 (CCRF-CEM): > 100 µM (inactive)
GI50 (SK-MEL-28): > 100 µM (inactive)
GI50 (ACHN): > 100 µM (inactive)
GI50 (KM12): > 100 µM (inactive)
GI50 (HCT-15): > 100 µM
GI50 (SN12C): > 100 µM (inactive)
GI50 (MDA-MB-231): > 100 µM (inactive)
GI50 (U-251): > 100 µM (inactive)
GI50 (BT-549): > 100 µM (inactive)
GI50 (SNB-19): > 100 µM (inactive)
GI50 (OVCAR-5): > 100 µM (inactive)
GI50 (RPMI-8226): > 100 µM (inactive)
GI50 (HOP-62): > 100 µM (inactive)
GI50 (NCI-H460): > 100 µM (inactive)
GI50 (TK-10): > 100 µM (inactive)
GI50 (A549): > 100 µM (inactive)
GI50 (SK-OV-3): > 100 µM (inactive)
GI50 (CAKI-1): > 100 µM (inactive)
GI50 (EKVX): > 100 µM (inactive)
GI50 (NCI-H226): > 100 µM (inactive)
GI50 (MDA-MB-435): > 100 µM (inactive)

CC(=O)OCC1OC(SC2=N/C(=C\c3ccc(Br)s3)C(=O)N2c2ccccc2)C(OC(C)=O)C(OC(C)=O)C1OC(C)=O (stereo not given)
GI50 (SF-268): > 100 µM (inactive) and 55.8 µM (inactive)
GI50 (MCF7): 42 µM (inactive) and 78.9 µM (inactive)
GI50 (OVCAR-4): 31.8 µM (inactive) and 41.9 µM (inactive)
GI50 (Hs-578T): 48.1 µM (inactive) and 35.2 µM (inactive)
GI50 (NCI/ADR-RES): 40.9 µM (inactive) and 43.1 µM (inactive)
GI50 (SK-MEL-2): 16.7 µM (inactive) and 32.6 µM (inactive)
GI50 (LOX IMVI): 47.8 µM (inactive) and 64.3 µM (inactive)
GI50 (Malme-3M): 50.6 µM (inactive) and 53.6 µM (inactive)
GI50 (PC-3): 34.1 µM (inactive) and 58.5 µM (inactive)
GI50 (NCI-H522): 21.8 µM (inactive) and 25.5 µM (inactive)
GI50 (SF-295): 39.8 µM (inactive) and 58.1 µM (inactive)
GI50 (UACC-62): 30.6 µM (inactive) and 30.9 µM (inactive)
GI50 (MDA-N): > 100 µM (inactive) and 54.6 µM (inactive)
GI50 (NCI-H23): 19 µM (inactive) and 33.4 µM (inactive)
GI50 (SW-620): > 100 µM (inactive) and 92 µM (inactive)
GI50 (HCC 2998): 59 µM (inactive) and 36.5 µM (inactive)
GI50 (A498): 41.1 µM (inactive) and 58.7 µM (inactive)
GI50 (SK-MEL-5): 52.2 µM (inactive) and 42.9 µM (inactive)
GI50 (RXF 393): 12.1 µM (inactive) and 9.64 µM (inactive)
GI50 (COLO 205): 41.2 µM (inactive) and 57.9 µM (inactive)
GI50 (SK-MEL-28): > 100 µM (inactive) and 82.8 µM (inactive)
GI50 (ACHN): 32.1 µM (inactive) and 52.1 µM (inactive)
GI50 (HCT-15): > 100 µM and 66.8 µM
GI50 (SN12C): 50.6 µM (inactive)
GI50 (MDA-MB-231): 58.5 µM (inactive) and 42.9 µM (inactive)
GI50 (BT-549): 24.4 µM (inactive) and 41.6 µM (inactive)
GI50 (SNB-19): 56.4 µM (inactive) and 37.1 µM (inactive)
GI50 (OVCAR-5): > 100 µM (inactive)
GI50 (HOP-62): 55 µM (inactive) and 41.7 µM (inactive)
GI50 (NCI-H460): 30.1 µM (inactive) and 38.1 µM (inactive)
GI50 (TK-10): 40.6 µM (inactive) and 60.3 µM (inactive)
GI50 (EKVX): 34.3 µM (inactive) and 30.7 µM (inactive)

CC(C)(C)OC(=O)NCC(CNC(=O)OC(C)(C)C)c1nc(C(N)=O)cs1
GI50 (MCF7): > 100 µM (inactive)
GI50 (OVCAR-4): > 100 µM (inactive)
GI50 (786-0): > 100 µM (inactive)
GI50 (OVCAR-3): > 100 µM (inactive)
GI50 (Hs-578T): > 100 µM (inactive)
GI50 (UO-31): > 100 µM (inactive)
GI50 (NCI/ADR-RES): > 100 µM (inactive)
GI50 (SK-MEL-2): > 100 µM (inactive)
GI50 (LOX IMVI): > 100 µM (inactive)
GI50 (Malme-3M): > 100 µM (inactive)
GI50 (HOP-92): > 100 µM (inactive)
GI50 (PC-3): > 100 µM (inactive)
GI50 (HT-29): > 100 µM (inactive)
GI50 (SF-295): > 100 µM (inactive)
GI50 (HL-60): > 100 µM (inactive)
GI50 (UACC-62): > 100 µM (inactive)
GI50 (HCT-116): > 100 µM (inactive)
GI50 (MDA-N): > 100 µM (inactive)
GI50 (SNB-75): 0.818 µM (active)
GI50 (NCI-H23): > 100 µM (inactive)
GI50 (IGROV-1): > 100 µM (inactive)
GI50 (UACC-257): > 100 µM (inactive)
GI50 (SW-620): > 100 µM (inactive)
GI50 (MOLT-4): > 100 µM (inactive)
GI50 (HCC 2998): > 100 µM (inactive)
GI50 (OVCAR-8): > 100 µM (inactive)
GI50 (M14): > 100 µM (inactive)
GI50 (A498): > 100 µM (inactive)
GI50 (K562): > 100 µM (inactive)
GI50 (SK-MEL-5): > 100 µM (inactive)
GI50 (RXF 393): > 100 µM (inactive)
GI50 (COLO 205): > 100 µM (inactive)
GI50 (SR): > 100 µM (inactive)
GI50 (CCRF-CEM): > 100 µM (inactive)
GI50 (SK-MEL-28): > 100 µM (inactive)
GI50 (ACHN): > 100 µM (inactive)
GI50 (KM12): > 100 µM (inactive)
GI50 (HCT-15): > 100 µM
GI50 (SN12C): > 100 µM (inactive)
GI50 (MDA-MB-231): > 100 µM (inactive)
GI50 (U-251): > 100 µM (inactive)
GI50 (BT-549): > 100 µM (inactive)
GI50 (SNB-19): > 100 µM (inactive)
GI50 (OVCAR-5): > 100 µM (inactive)
GI50 (HOP-62): > 100 µM (inactive)
GI50 (NCI-H460): > 100 µM (inactive)
GI50 (TK-10): > 100 µM (inactive)
GI50 (A549): > 100 µM (inactive)
GI50 (SK-OV-3): > 100 µM (inactive)
GI50 (CAKI-1): > 100 µM (inactive)
GI50 (EKVX): > 100 µM (inactive)
GI50 (SF-539): > 100 µM (inactive)
GI50 (NCI-H226): > 100 µM (inactive)
GI50 (MDA-MB-435): > 100 µM (inactive)
